The text below walks through data of patent US7605163B2, “Benzoyl-piperazine derivatives” (Hoffmann-La Roche Inc., priority 2003, dated 2009).

The test addresses T1, mGlyT-1b (Mus musculus, UniProt P28571).
T1 construct: host or cells: Flp-in-CHO cells
T1 sequence (P28571 1-651 isoform P28571-2): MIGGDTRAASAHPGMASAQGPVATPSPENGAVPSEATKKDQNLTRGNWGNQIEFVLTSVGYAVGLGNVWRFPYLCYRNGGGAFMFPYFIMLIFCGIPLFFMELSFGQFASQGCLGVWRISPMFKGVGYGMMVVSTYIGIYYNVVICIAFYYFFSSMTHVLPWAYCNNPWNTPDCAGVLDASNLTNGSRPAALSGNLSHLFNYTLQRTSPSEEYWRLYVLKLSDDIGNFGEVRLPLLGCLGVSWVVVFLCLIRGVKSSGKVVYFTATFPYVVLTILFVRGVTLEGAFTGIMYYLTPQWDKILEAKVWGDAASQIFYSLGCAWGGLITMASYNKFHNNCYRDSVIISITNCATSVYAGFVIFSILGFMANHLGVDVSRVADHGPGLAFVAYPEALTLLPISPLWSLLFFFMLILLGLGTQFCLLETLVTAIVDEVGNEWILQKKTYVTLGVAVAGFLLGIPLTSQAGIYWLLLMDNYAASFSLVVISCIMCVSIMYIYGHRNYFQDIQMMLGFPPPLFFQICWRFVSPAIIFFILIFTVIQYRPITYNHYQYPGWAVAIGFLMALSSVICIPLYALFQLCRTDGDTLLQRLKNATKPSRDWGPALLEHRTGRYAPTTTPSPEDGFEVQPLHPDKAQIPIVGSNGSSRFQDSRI
Kind of test: Glycine Uptake Inhibition Assay (mGlyT-1b). Format: cell-based. The conditions noted are these: [3H]-glycine uptake inhibition at GlyT-1, Flp-in-CHO cells transfected with mGlyT-1b cDNA. On the procedure:
DMEM complete medium: Nutrient mixture F-12 (Gibco Life-technologies), fetal bovine serum (FBS) 5%, (Gibco life technologies), Penicillin/Streptomycin 1% (Gibco life technologies), Hygromycin 0.6 mg/ml (Gibco life technologies), Glutamine 1 mM Gibco life technologies)
Uptake buffer (UB): 150 mM NaCl, 10 mM Hepes-Tris, pH 7.4, 1 mM CaCl2, 2.5 mM KCl, 2.5 mM MgSO4, 10 mM (+) D-glucose. Flp-in™-CHO (Invitrogen Cat n^o R758-07) cells stably transfected with mGlyT1b cDNA.
Glycine Uptake Inhibition Assay (mGlyT-1b)
On day 1 mammalian cells, (Flp-in™-CHO), transfected with mGlyT-1b cDNA, were plated at the density of 40,000 cells/well in complete F-12 medium, without hygromycin in 96-well culture plates. On day 2, the medium was aspirated, and the cells were washed twice with uptake buffer (UB). The cells were then incubated for 20 min at 22° C. with either (i) no potential competitor, (ii) 10 mM non-radioactive glycine, (iii) a concentration of a potential inhibitor. A range of concentrations of the potential inhibitor was used to generate data for calculating the concentration of inhibitor resulting in 50% of the effect (e.g. IC50, the concentration of the competitor inhibiting glycine uptake of 50%).
A solution was then immediately added containing [^3H]-glycine 60 nM (11-16 Ci/mmol) and 25 μM non-radioactive glycine. The plates were incubated with gentle shaking, and the reaction was stopped by aspiration of the mixture and washing (three times) with ice-cold UB. The cells were lysed with scintillation liquid, shaken 3 hours and the radioactivity in the cells counted using a scintillation counter.

By IC50 is commonly meant the concentration at which inhibition is half-maximal. Molecule `O=C(c1cc([N+](=O)[O-])ccc1OC1CCOCC1)N1CCN(c2ccc(C(F)(F)F)cc2)CC1` [Example 95, [5-Nitro-2-(tetrahydro-pyran-4-yloxy)-phenyl]-[4-(4-trifluoromethyl-phenyl)-piperazin-1-yl]-methanone] yielded a concentration for half-maximal inhibition (IC50) of 0.035 µM.

`O=C(c1cc([N+](=O)[O-])ccc1OCC(F)(F)C(F)(F)F)N1CCN(c2ccc(C(F)(F)F)cc2)CC1` [Example 100, [5-Nitro-2-(2,2,3,3,3-pentafluoro-propoxy)-phenyl]-[4-(4-trifluoromethyl-phenyl)-piperazin-1-yl]-methanone] returned an IC50 of 0.02 µM.

`CC(C)(Oc1ccc(S(C)(=O)=O)cc1C(=O)N1CCN(c2ccc(C(F)(F)F)cn2)CC1)C(F)(F)F` [Example 105, [5-Methanesulfonyl-2-(2,2,2-trifluoro-1,1-dimethyl-ethoxy)-phenyl]-[4-(5-trifluoromethyl-pyridin-2-yl)-piperazin-1-yl]-methanone] showed an IC50 of 0.039 µM.

On to `CC(C)Oc1ccc(S(C)(=O)=O)cc1C(=O)N1CCN(c2ccc(S(=O)(=O)C(F)(F)F)cc2)CC1` [Example 328, (2-Isopropoxy-5-methanesulfonyl-phenyl)-[4-(4-trifluoromethanesulfonyl-phenyl)-piperazin-1-yl]-methanone], for which the IC50 came to 0.032 µM.

In the case of `CS(=O)(=O)c1ccc(OC2CCCC2)c(C(=O)N2CCN(c3ccc(S(=O)(=O)C(F)(F)F)cc3)CC2)c1` [Example 329, (2-Cyclopentyloxy-5-methanesulfonyl-phenyl)-[4-(4-trifluoromethanesulfonyl-phenyl)-piperazin-1-yl]-methanone], the IC50 was determined as 0.016 µM.

The molecule `CC(C)COc1ccc(S(C)(=O)=O)cc1C(=O)N1CCN(c2ccc(S(=O)(=O)C(F)(F)F)cc2)CC1` [Example 330, (2-Isobutoxy-5-methanesulfonyl-phenyl)-[4-(4-trifluoromethanesulfonyl-phenyl)-piperazin-1-yl]-methanone] came in with an IC50 of 0.018 µM.

With `CC(C)Oc1ccc(S(C)(=O)=O)cc1C(=O)N1CCN(c2ccc(C#N)c(F)c2F)CC1` [compound 109], the IC50 was 0.021 µM.

In the case of `CNS(=O)(=O)c1ccc(OC(F)(F)F)c(C(=O)N2CCN(c3ccc(C#N)c(F)c3)CC2)c1` [compound 111], it took 0.035 µM to reach half-maximal inhibition (IC50).

`CS(=O)(=O)c1ccc(OCCC(F)(F)F)c(C(=O)N2CCN(c3ccc(C#N)cc3F)CC2)c1` [compound 112]: 0.024 µM corresponded to half-maximal inhibition (IC50).

Molecule `CS(=O)(=O)c1ccc(OCCC(F)(F)F)c(C(=O)N2CCN(c3ccc(C(F)(F)F)c(F)c3)CC2)c1` [compound 116] gave an IC50 of 0.019 µM.

Turning to `CS(=O)(=O)c1ccc(OCCC(F)(F)F)c(C(=O)N2CCN(c3ccc(C(F)(F)F)cc3F)CC2)c1` [compound 117], the IC50 was found to be 0.044 µM.

Regarding `CC(=O)c1ccc(N2CCN(C(=O)c3cc(S(C)(=O)=O)ccc3OCCC(F)(F)F)CC2)c(F)c1` [compound 118], the IC50 came out at 0.024 µM.

On to `CC(C)COc1ccc(S(C)(=O)=O)cc1C(=O)N1CCN(c2ccc(C#N)c(F)c2F)CC1` [compound 128], for which the IC50 was determined as 0.02 µM.

In the case of `CS(=O)(=O)c1ccc(OC2CCCC2)c(C(=O)N2CCN(c3ccc(C#N)c(F)c3F)CC2)c1` [compound 131], the IC50 came to 0.03 µM.

`CC(C)COc1ccc(S(C)(=O)=O)cc1C(=O)N1CCN(c2cc(F)c(C#N)cc2F)CC1` [compound 132] displayed an IC50 of 0.038 µM.

Turning to `CS(=O)(=O)c1ccc(OC2CCCC2)c(C(=O)N2CCN(c3cc(F)c(C#N)cc3F)CC2)c1` [compound 135], the IC50 amounted to 0.041 µM.

The molecule `CS(=O)(=O)c1ccc(OCC2CCC2)c(C(=O)N2CCN(c3ccc(C#N)cc3)CC2)c1` [compound 136] returned a half-maximal inhibitory concentration (IC50) of 0.027 µM.

For the molecule `CS(=O)(=O)c1ccc(OCC2CCC2)c(C(=O)N2CCN(c3ccc(C#N)c(F)c3)CC2)c1` [compound 137], inhibition was half-maximal at 0.027 µM (IC50).

On to `CS(=O)(=O)c1ccc(OCC2CCC2)c(C(=O)N2CCN(c3ccc(C#N)cc3F)CC2)c1` [compound 138], for which the IC50 was 0.017 µM.

In turn, `CS(=O)(=O)c1ccc(OCC2CCC2)c(C(=O)N2CCN(c3ccc(C(F)(F)F)cc3)CC2)c1` [compound 139] displayed an IC50 of 0.024 µM.

In turn, `CC(=O)c1ccc(N2CCN(C(=O)c3cc(S(C)(=O)=O)ccc3OCC3CCC3)CC2)c(F)c1` [compound 142] yielded an IC50 of 0.034 µM.

`CS(=O)(=O)c1ccc(OCC2CCC2)c(C(=O)N2CCN(c3ccc(C(F)(F)F)cc3C#N)CC2)c1` [compound 144]: the IC50 worked out at 0.045 µM.

Molecule `CS(=O)(=O)c1ccc(OCC2CCC2)c(C(=O)N2CCN(c3ccc(C#N)c(F)c3F)CC2)c1` [compound 145] gave an IC50 of 0.015 µM.

Molecule `CS(=O)(=O)c1ccc(OCC2CCC2)c(C(=O)N2CCN(c3cc(F)c(C#N)cc3F)CC2)c1` [compound 146] showed an IC50 of 0.019 µM.

`CS(=O)(=O)c1ccc(OCC2CCC2)c(C(=O)N2CCN(c3c(F)cc(C#N)cc3F)CC2)c1` [compound 147] displayed an IC50 of 0.031 µM.

For the molecule `CS(=O)(=O)c1ccc(OCC2CCC2)c(C(=O)N2CCN(c3cc(F)c(C#N)c(F)c3)CC2)c1` [compound 148], the IC50 amounted to 0.036 µM.

As to `CC(C)COc1ccc(S(C)(=O)=O)cc1C(=O)N1CCN(c2c(F)cc(C#N)cc2F)CC1` [compound 164], the IC50 came out at 0.019 µM.

In turn, `CS(=O)(=O)c1ccc(OCC2CC2)c(C(=O)N2CCN(c3c(F)cc(C#N)cc3F)CC2)c1` [compound 165] gave a half-inhibitory concentration (IC50) of 0.47 µM.

Turning to `CS(=O)(=O)c1ccc(OC2CCCC2)c(C(=O)N2CCN(c3c(F)cc(C#N)cc3F)CC2)c1` [compound 167], the midpoint of inhibition, the IC50, lay at 0.016 µM.

For the molecule `CC(C)COc1ccc(S(C)(=O)=O)cc1C(=O)N1CCN(c2cc(F)c(C#N)c(F)c2)CC1` [compound 169], the concentration for half-maximal inhibition (IC50) amounted to 0.012 µM.

In turn, `CS(=O)(=O)c1ccc(OCC2CC2)c(C(=O)N2CCN(c3cc(F)c(C#N)c(F)c3)CC2)c1` [compound 170] registered an IC50 of 0.031 µM.

With `CS(=O)(=O)c1ccc(OC2CCCC2)c(C(=O)N2CCN(c3cc(F)c(C#N)c(F)c3)CC2)c1` [compound 172], the IC50 came out at 0.019 µM.

In turn, `CS(=O)(=O)c1ccc(OCC(F)(F)C(F)(F)F)c(C(=O)N2CCN(c3ccc(C#N)c(F)c3)CC2)c1` [compound 180] yielded an IC50 of 0.036 µM.

`CS(=O)(=O)c1ccc(OCC(F)(F)C(F)(F)F)c(C(=O)N2CCN(c3ccc(C(F)(F)F)cc3)CC2)c1` [compound 182] gave an IC50 of 0.03 µM.

The molecule `CS(=O)(=O)c1ccc(OCC(F)(F)C(F)(F)F)c(C(=O)N2CCN(c3ccc(C#N)c(F)c3F)CC2)c1` [compound 184] returned an IC50 of 0.022 µM.

Molecule `CS(=O)(=O)c1ccc(OCC(F)(F)C(F)(F)F)c(C(=O)N2CCN(c3c(F)cc(C#N)cc3F)CC2)c1` [compound 186] gave an IC50 of 0.048 µM.

In the case of `CS(=O)(=O)c1ccc(OC(CF)CF)c(C(=O)N2CCN(c3ccc(C(F)(F)F)cc3C#N)CC2)c1` [compound 194], it took 0.047 µM to reach half-maximal inhibition (IC50).

`CC(C)(C)Oc1ccc(S(C)(=O)=O)cc1C(=O)N1CCN(c2ccc(C#N)c(F)c2F)CC1` [compound 196]: the IC50 was 0.041 µM.

As for `CC(C)Oc1ccc(S(C)(=O)=O)cc1C(=O)N1CCN(c2ccc(Cl)cc2C#N)CC1` [compound 202], the IC50 was found to be 0.024 µM.

`CS(=O)(=O)c1ccc(OCC(F)(F)C(F)F)c(C(=O)N2CCN(c3ccc(C#N)c(F)c3)CC2)c1` [compound 209] had an IC50 of 0.041 µM.

Regarding `CS(=O)(=O)c1ccc(OCC(F)(F)C(F)F)c(C(=O)N2CCN(c3ccc(C#N)cc3F)CC2)c1` [compound 210], half-maximal inhibition (IC50) required 0.039 µM.

On to `CS(=O)(=O)c1ccc(OCC(F)(F)C(F)F)c(C(=O)N2CCN(c3ccc(C(F)(F)F)cc3)CC2)c1` [compound 211], for which the midpoint of inhibition, the IC50, lay at 0.043 µM.

With `CS(=O)(=O)c1ccc(OCC(F)(F)C(F)F)c(C(=O)N2CCN(c3ccc(C(F)(F)F)cc3F)CC2)c1` [compound 212], half-maximal inhibition (IC50) required 0.029 µM.

As to `CS(=O)(=O)c1ccc(OCC(F)(F)C(F)F)c(C(=O)N2CCN(c3ccc(C#N)c(F)c3F)CC2)c1` [compound 213], the midpoint of inhibition, the IC50, lay at 0.021 µM.

In the case of `CS(=O)(=O)c1ccc(OCC(F)(F)C(F)F)c(C(=O)N2CCN(c3c(F)cc(C#N)cc3F)CC2)c1` [compound 215], half-maximal inhibition (IC50) was put at 0.049 µM.
